# Measurements published in US20240199613A1 (TAKEDA PHARMACEUTICAL COMPANY LIMITED, priority 2021, published 2024).
# How the values were obtained:
# plasma kallikrein = target: T1, plasma kallikrein (Homo sapiens, UniProt P03952); test: Neat human plasma assay: contact pathway-activated (FXIIa) plasma, PFR-AMC substrate; format: biochemical; settings: citrated human plasma (78% final), 10 nM human FXIIa, 100 μM PFR-AMC, room temperature
# T1 construct: from tissue; host or cells: sodium citrate collected human plasma (78% final)
# T1 sequence (P03952 391-638 limits assumed): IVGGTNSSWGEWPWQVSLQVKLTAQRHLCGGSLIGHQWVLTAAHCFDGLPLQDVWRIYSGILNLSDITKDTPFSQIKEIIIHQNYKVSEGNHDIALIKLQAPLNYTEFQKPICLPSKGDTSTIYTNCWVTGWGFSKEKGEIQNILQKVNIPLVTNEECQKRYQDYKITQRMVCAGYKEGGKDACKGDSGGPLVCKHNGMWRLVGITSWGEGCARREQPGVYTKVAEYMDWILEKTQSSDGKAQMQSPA
# T1 sequence (P03952 20-390 partner limits assumed): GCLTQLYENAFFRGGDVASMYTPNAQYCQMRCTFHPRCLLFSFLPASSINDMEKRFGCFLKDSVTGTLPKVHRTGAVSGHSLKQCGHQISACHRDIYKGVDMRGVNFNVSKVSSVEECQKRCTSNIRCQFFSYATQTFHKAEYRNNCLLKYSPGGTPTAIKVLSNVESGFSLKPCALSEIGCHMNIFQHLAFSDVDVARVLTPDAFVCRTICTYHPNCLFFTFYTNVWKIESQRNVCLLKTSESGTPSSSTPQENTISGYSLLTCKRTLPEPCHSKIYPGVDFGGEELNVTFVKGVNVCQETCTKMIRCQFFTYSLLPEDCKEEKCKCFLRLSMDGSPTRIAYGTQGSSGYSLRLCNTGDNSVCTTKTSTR
# Outline: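 Compounds spiked into citrated human or rat plasma (78% final), or plasma taken from orally or IV dosed rats, activated with 10 nM human FXIIa; 100 μM PFR-AMC cleavage read at 360/480 nm for 5 min, room temperature. Rates vs concentration fit to 4-parameter IC50/IC90 equation.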
# [1] = target: human activated kallikrein enzyme (Homo sapiens, UniProt P03952); test: Inhibition of activated plasma kallikrein, fluorogenic peptide substrate (PFR-AMC) assay, 500 pM enzyme format; format: biochemical; settings: 500 pM activated kallikrein, 300 uM PFR-AMC, 30 min preincubation, 10 min reaction, room temperature; read-out: Primary Dose Response Assay: Average EC50
# Sequence of human activated kallikrein enzyme (P03952 391-638 limits assumed): as the sequence (P03952 391-638 limits assumed) above
# Sequence of human activated kallikrein enzyme (P03952 20-390 partner limits assumed): as the sequence (P03952 20-390 partner limits assumed) above
# Outline: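 500 pM enzyme preincubated 30 min at room temperature with inhibitor in 20 mM Tris pH 7.5, 150 mM NaCl, 1 mM EDTA, 0.1% PEG-400, 0.1% Triton X-100. Reaction started with 300 uM PFR-AMC and run 10 min at room temperature. Fluorescence read at 380 nm excitation/460 nm emission.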
Structure (SMILES),IC90 (plasma kallikrein),EC50 [1]
"Cc1ccnc([C@H]2C[C@@H]2C2=NS(=O)(=O)c3ccc(OCc4cn5cc(C6CC6)ccc5n4)cc3N2)n1 (racemic) [Example 92, rac-6-((6-cyclopropylimidazo[1,2-a]pyridin-2-yl)methoxy)-3-((1S*,2S*)-2-(4-methylpyrimidin-2-yl)cyclopropyl)-4H-benzo[e][1,2,4]thiadiazine 1,1-dioxide]",1500 to 10000 nM,≤ 1 nM
"Cc1ccnc([C@H]2C[C@@H]2c2ccc3ccc(NCc4cn5cc(C6CC6)nc(N6CC(=O)N(C)C6=O)c5n4)cc3n2)n1 (racemic) [Example 106, rac-1-(6-cyclopropyl-2-(((2-((1S*,2S*)-2-(4-methylpyrimidin-2-yl)cyclopropyl)quinolin-7-yl)amino)methyl)imidazo[1,2-a]pyrazin-8-yl)-3-methylimidazolidine-2,4-dione]",1500 to 10000 nM,1 to 10 nM
"Cc1ccnc([C@H]2C[C@@H]2C2=CS(=O)(=O)c3cnc(NCc4cn5cc(C6CC6)cc(N6CC(=O)N(C)C6=O)c5n4)cc3N2)n1 (racemic) [Example 79, rac-1-(6-cyclopropyl-2-(((2-((1S*,2S*)-2-(4-methylpyrimidin-2-yl)cyclopropyl)-4,4-dioxido-1H-pyrido[3,4-b][1,4]thiazin-7-yl)amino)methyl)imidazo[1,2-a]pyridin-8-yl)-3-methylimidazolidine-2,4-dione]",≤ 400 nM,≤ 1 nM
"Cc1ccnc([C@H]2C[C@@H]2C2=NS(=O)(=O)c3ccc(NCc4cn5cc(C6CC6)ccc5n4)cc3N2)n1 (racemic) [Example 64, rac-6-(((6-cyclopropylimidazo[1,2-a]pyridin-2-yl)methyl)amino)-3-((1S*,2S*)-2-(4-methylpyrimidin-2-yl)cyclopropyl)-4H-benzo[e][1,2,4]thiadiazine 1,1-dioxide]",400 to 1500 nM,≤ 1 nM
"Cc1ccnc([C@H]2C[C@@H]2C2=NS(=O)(=O)c3ccc(NCc4cn5cc(C6CC6)ccc5n4)cc3N2)n1 (single isomer, unassigned) [Example 65]",400 to 1500 nM,≤ 1 nM

# Results, then the molecule that gave them:
IC90 (plasma kallikrein),EC50 [1],Structure (SMILES)
400 to 1500 nM,≤ 1 nM,"Cc1ccnc([C@H]2C[C@@H]2c2cc(OCCO)c3ccc(NCc4cn5cc(C6CC6)cc(N6CC(=O)N(C)C6=O)c5n4)cc3n2)n1 (racemic) [Example 69, rac-1-(6-cyclopropyl-2-(((4-(2-hydroxyethoxy)-2-((1S*,2S*)-2-(4-methylpyrimidin-2-yl)cyclopropyl)quinolin-7-yl)amino)methyl)imidazo[1,2-a]pyridin-8-yl)-3-methylimidazolidine-2,4-dione]"
1500 to 10000 nM,≤ 1 nM,"Cc1ccnc([C@H]2C[C@@H]2c2cc(CC#N)c3ccc(NCc4cn5cc(C6CC6)cc(N6CC(=O)N(C)C6=O)c5n4)cc3n2)n1 (racemic) [Example 85, rac-2-(7-(((6-cyclopropyl-8-(3-methyl-2,4-dioxoimidazolidin-1-yl)imidazo[1,2-a]pyridin-2-yl)methyl)amino)-2-((1S*,2S*)-2-(4-methylpyrimidin-2-yl)cyclopropyl)quinolin-4-yl)acetonitrile]"
1500 to 10000 nM,≤ 1 nM,"Cc1ccnc([C@H]2C[C@@H]2c2nc3cc(NCc4cn5cc(C6CC6)cc(N6CC(=O)N(C)C6=O)c5n4)cnc3c(=O)[nH]2)n1 (racemic) [Example 9, rac-1-(6-cyclopropyl-2-(((2-((1S*,2S*)-2-(4-methylpyrimidin-2-yl)cyclopropyl)-4-oxo-3,4-dihydropyrido[3,2-d]pyrimidin-7-yl)amino)methyl)imidazo[1,2-a]pyridin-8-yl)-3-methylimidazolidine-2,4-dione]"
400 to 1500 nM,≤ 1 nM,"Cc1ccnc(C2CC2c2cc(=O)c3ccc(NCc4cn5cc(C6CC6)cc(N6CC(=O)N(C)C6=O)c5n4)cc3[nH]2)n1 (single isomer, unassigned) [Example 12, 1-(6-cyclopropyl-2-(((2-(2-(4-methylpyrimidin-2-yl)cyclopropyl)-4-oxo-1,4-dihydroquinolin-7-yl)amino)methyl)imidazo[1,2-a]pyridin-8-yl)-3-methylimidazolidine-2,4-dione]"
10000 to 22000 nM,1 to 10 nM,"Cc1ccnc([C@H]2C[C@@H]2c2ncc3ccc(NCc4cn5cc(C6CC6)cc(N6CC(=O)N(C)C6=O)c5n4)cc3n2)n1 (racemic) [Example 60, rac-1-(6-cyclopropyl-2-(((2-((1S*,2S*)-2-(4-methylpyrimidin-2-yl)cyclopropyl)quinazolin-7-yl)amino)methyl)imidazo[1,2-a]pyridin-8-yl)-3-methylimidazolidine-2,4-dione]"
1500 to 10000 nM,≤ 1 nM,"Cc1ccnc([C@H]2C[C@@H]2c2ccc3ccc(NCc4cn5cc(C6CC6)cc(N6CC(=O)N(C)C6=O)c5n4)cc3n2)n1 (racemic) [Example 57, rac-1-(6-cyclopropyl-2-(((2-((1S*,2S*)-2-(4-methylpyrimidin-2-yl)cyclopropyl)quinolin-7-yl)amino)methyl)imidazo[1,2-a]pyridin-8-yl)-3-methylimidazolidine-2,4-dione]"
